Where “and” joins values, the source holds several entries; their conditions need not be identical. Equal values may be shown once.
Columns and labels:
[1] = test system: lymphocyte migration into the spleen; assay: Inhibition of lymphocyte migration into lymphoid tissue (spleen); type: in vivo, Balb/C mice; settings: intravenous dose of 5 mg of test compound together with labelled lymphocytes; spleens removed 1.5 hours after injection
From the text: In the present example, spleens from specific pathogen free 6-8 week old female Balb/C mice [19-21 g] were used to prepare a single cell suspension in the usual manner in mixed lymphocyte culture medium (DMEM plus glucose, folic acid, L-asparagine, sodium bicarbonate, L-glutamine, sodium pyruvate, HEPES, 2-mercaptoethanol, penicillin, streptomycin, neomycin, and 2% fetal calf serum) by pushing through a stainless steel screen. Following cell collection the red blood cells were lysed in the usual manner by treating with a solution of ammonium chloride, EDTA and sodium hydrogen carbonate (pH 7.3) and the preparation strained (Falcon 2350 cell strainer). All cell preparative steps were performed on ice.
In order to deplete the preparation of B lymphocytes, the cells were suspended in purified rat anti-mouse CD45/B220 antibody (RA3-6B2 clone; PharMingen, USA) at a concentration of 4×10^7 cells per ml and incubated on ice for 20 minutes. An equal volume of mixed lymphocyte culture medium (as above) was then added and the cells centrifuged (200× g) and resuspended at a concentration of 1×10^7 cells per ml in BioMag goat ant-rat IgG (H&L) linked to magnetic beads (Bio Mag; Perseptive Diagnostics, Polysciences Inc, USA). Following a 20 minute incubation on ice, with agitation every 5 minutes, the goat anti-rat IgG/antibody complex was removed using magnetic separation (Dynal MPC-6, Dynal, USA). The magnetic separation procedure was repeated 4 times giving a cell population containing approximately 80-90% T lymphocytes (determined by FACS analysis).
The cells were then washed in Hanks media, resuspended in 5 ml of Hanks, and radio-labelled for 30 minutes at 37° C. with sodium chromate solution (^51Cr, 34 MBq/ml, Amersham, UK). The labelled cells were washed in PBS centrifuged (200×g) and a portion were resuspended at a concentration of 3×10^7 cells/ml in either PBS (negative control), or PBS containing the test compound (25 mg/ml), and stored on ice. Balb/C mice in the negative control and treatment groups received a volume of 0.2 ml of the labelled cell preparation by a lateral tail vein injection. Negative control mice received 0.2 ml of PBS together with 6×10^6 51chromium-labelled lymphocytes, and mice from the treated groups received an intravenous dose of 5 mg of the test compound together with 6 million ^51chromium-labelled lymphocytes. […]
Spleens from the recipient mice were removed 1.5 hours after injection and the cell-associated radioactivity (CPM) determined using a gamma counter (Packard Auto-Gamma 5650. IL, USA). Results (inhibition of lymphocyte migration into the spleen) were expressed as a percentage reduction in the CPM of the spleens from treated animals compared with negative controls.

[2] = test system: DTH response to 2,4-dinitrofluorobenzene (DNFB); assay: Delayed-type hypersensitivity (DTH) response to DNFB, ear swelling; type: in vivo, Balb/C mice
From the text: In the present Example, a murine model of Type IV hypersensitivity or delayed-type hypersensitivity (DTH) response to cutaneous contact with the chemical hapten 2,4-dinitrofluorobenzene (DNFB) (Aldrich Chemical Company Inc, USA) was used as a model to measure the anti-inflammatory effects of compounds of the present invention. Specific pathogen-free 8-12 week old female Balb/C mice, weighing 19-21 g, were sensitised in a similar manner to that described by Klimuk et al., (Klimuk et al., 1999) by applying a solution of DNFB (0.5% in acetone:olive oil (4:1, v/v); 30 microliters,) onto a 2 cm^2 shaved area of the abdomen. After 7 days, the animals were anesthetised with diethyl ether and 8 microliters of DNFB (0.35% in acetone:olive oil (4:1, v/v) was applied to the dorsal and ventral surfaces of the right pinna. Prior to regaining consciousness, the mice were implanted intraperitoneally with Alzet 2001 mini-osmotic pumps (Alza Corp., Palo Alto Calif., USA) containing phosphoric acid mono-[6-(3-hexyloxy-propyl)-3,4,5-trihydroxy-tetrahydro-pyran-2-ylmethyl] ester, sodium salt in normal saline. The dose delivered was 50 mg/kg/day. Control animals for this group received saline delivered in identical mini-osmotic pumps. A second experimental group of mice received phosphoric acid mono-[3-(3,4,5-trihydroxy-6-phosphonooxymethyl-tetrahydro-pyran-2-yl)-propyl] ester disodium salt via one-week delivery Alzet 2001 mini-osmotic pumps implanted intraperitoneally. This compound was delivered at a dose of 40 mg/kg/day. Control animals for this group received saline delivered in identical mini-osmotic pumps. In a third experiment a separate group of mice received (3,4,5-trihydroxy-6-phosphonooxymethyl-tetrahydro-pyran-2-yl)-acetic acid disodium salt via one-week delivery Alzet 2001 mini-osmotic pumps that were placed intraperitoneally. This compound was delivered at 45 mg/kg/day. The control group for this experiment received identical mini-osmotic pumps containing normal saline. In a fourth experiment a group of mice received 3-phenyl-2-[2-(3,4,5-trihydroxy-6-phosphonooxymethyl-tetrahydro-pyran-2-yl)-acetylamino]-propionic acid monosodium salt via one-week delivery Alzet 2001 mini-osmotic pumps that were placed subcutaneously. This compound was delivered at 62 mg/kg/day. The control group for this experiment received identical mini-osmotic pumps containing normal saline. In a fifth experiment a group of mice received hexanoic acid 3-(3,4,5-trihydroxy-6-phosphonooxymethyl-tetrahydro-pyran-2-yl)-propyl ester sodium salt via one-week delivery Alzet 2001 mini-osmotic pumps that were placed subcutaneously. This compound was delivered at 40 mg/kg/day. The control group for this experiment received identical mini-osmotic pumps containing normal saline.
Twenty-four hours after challenge the mice were lightly anesthetised with diethyl ether and the thickness of the left and right pinnae measured (in millimeters) using a dial gauge micrometer (Interapid, Switzerland). Care was taken to measure only the outer two thirds of the ear. The increase in ear thickness initiated by the DTH response was determined by subtracting the measurement of the left ear (untreated) from the right ear (challenged).
In Table 4, values in the columns labeled Left and Right are measurements of ear thickness in millimeters of the control and challenged ears respectively.

[3] = test system: T lymphocyte migration into the right ear; assay: Inhibition of in vivo migration of T lymphocytes into extra lymphatic tissues (picryl chloride treated ear); set-up: species or system Balb/C mice; settings: 5 mg per mouse, IV, 9 to 10 hours after cell transfer
From the text: T lymphocytes are known to migrate from the blood stream into tissues, including tissues that contain an antigen to which they can respond. An in vivo example of T lymphocyte migration involves the intravenous injection of radioisotopically- or fluorescently-labelled antigen-specific T cells into a mammal that has the antigen present in one or more of its tissues. An assessment of the degree to which the injected T cells have accumulated in the antigen-containing tissue can be made either by measuring the amount of radioactivity present in the tissue or analysing the tissue histologically to determine the number of infiltrated fluorescently labelled cells. […] For example, in the case of a CNS antigen the cells will localise in the brain and spinal cord and the number of labelled cells that have accumulated there can then be determined. […] Within a short time of cell transfer sensitised T cells begin to accumulate in the haptenised tissue and eight to twenty-four hours later the tissue can be removed and the cell accumulation assessed. In the case of fluorescently-labelled cells their accumulation is assessed histologically and in the case of the radio-labelled cells accumulation is assessed by counting radio active decay in a suitable device. […]

Compound	Percent Inhibition (relative to negative controls) of lymphocyte migration into spleens [1]	Mean percentage decrease in ear swelling in treated animals ([2]; 45 mg/kg/day intraperitoneally, versus saline controls)	Mean Difference, Treated ([2]; group mean, 45 mg/kg/day intraperitoneally, saline control mean 0.068)	Difference (right minus left ear), Treated ([2]; individual mice, 45 mg/kg/day, mini-osmotic pump intraperitoneally, 24 hours after challenge, disodium salt)	Right ear thickness, Treated ([2]; individual mice, challenged ear, 45 mg/kg/day, mini-osmotic pump intraperitoneally, 24 hours after challenge, disodium salt)	Left ear thickness, Treated ([2]; individual mice, control (unchallenged) ear, 45 mg/kg/day, mini-osmotic pump intraperitoneally, 24 hours after challenge, disodium salt)	Percent inhibition of T cell migration [3]
O=C([O-])CC1OC(COP(=O)(O)O)C(O)C(O)C1O.O=C([O-])CC1OC(COP(=O)(O)O)C(O)C(O)C1O.[Na+].[Na+] (stereo not shown) [(3,4,5-trihydroxy-6-phosphonooxymethyl-tetrahydro-pyran-2-yl)-acetic acid disodium salt]	85.5%	Mean percentage decrease in ear swelling intreated animals: 29.4%	0.048 millimeters	0.06 millimeters (2×) and 0.05 millimeters (3×) and 0.03 millimeters (3×) and 0.07 millimeters	0.27 millimeters (3×) and 0.24 millimeters (2×) and 0.29 millimeters and 0.26 millimeters (3×)	0.21 millimeters (6×) and 0.22 millimeters (2×) and 0.23 millimeters	–
Phenylethyl (3,4,5-trihydroxy-6-phosphonooxymethyl-tetrahydro-pyran-2-yl)-acetic acid ester	–	–	–	–	–	–	26.1%

From patent publication US6878690B2, “Compounds and methods” (PharmAxis Pty Ltd., priority 2000, dated 2005)
